Literature values as cited in patent US10327463B2 (priority 2015, dated 2019).
Where a name gives a salt, the structure may show the parent alone.

How the values were obtained:
[1] = system: Listeria monocytogenes; settings: alone or with additional antimicrobials; turkey slurries with and without sodium nitrite
[2] = system: C. perfringens
[3] = system: Clostridium species; settings: cured products, processed meat formulations
[4] = system: Listeria monocytogenes; settings: maximum allowed level of 156 ppm, without adjunct antimicrobials

Question: With `CC(=O)O.CC(=O)[O-].[Na+]` [sodium diacetate] as the compound, how does the “level effective in controlling Listeria monocytogenes” value [1] read?
Answer: 0.3-0.5%

Question: Which “inhibition of C. perfringens” value [2] does the source give for `CC(=O)O` [acetic acid or its salt, acetic acid] here?
Answer: failed to inhibit C. perfringens

Question: With `O=NO` [sodium nitrite] as the compound, how does the “level sufficient for the inhibition of Clostridium species” value [3] read?
Answer: approx. 50 ppm

Question: And the “inhibition of Listeria monocytogenes” value [4]?
Answer: insufficient for the inhibition of Listeria monocytogenes
